“Also recorded” adds a separate entry of the source.
How the values were obtained:
[1] = Steady-state molar absorptivity spectra, thiouracil series; assay type: physicochemical; conditions: 380 to 400 nm; based on molar absorptivity spectra
Description: Steady-state absorption spectra were measured using a Cary 100 Bio spectrometer. All absorption spectra were background corrected by subtracting the absorption of the neat solvent. Molar absorptivity coefficients were determined from the absorption spectra of serial dilutions of stock solutions with known concentrations.
An important property in the characterization of the photosensitizing potential of the thiouracil series is the determination of their ground-state molar absorptivity spectra. […] The maximum of the lowest-energy absorption band is shifted considerably further to the red (60 nm, 6734 cm^−1) upon sulfur substitution of the oxygen atom at the C4 position compared to when the substitution is made at the C2 position. […] In fact, based on the molar absorptivity spectra, the absorption efficiency of 2,4dtUra at nearvisible wavelengths (380 to 400 nm) is about 27-fold greater than that of 4tUra (see ESI† for details). The ability of these thiouracil derivatives to absorb longer wavelengths of light than uracil facilitates their selective excitation over the canonical DNA and RNA nucleobases. This photophysical property is essential for their prospective use in in vitro and in vivo photosensitizing applications.

[2] = cited from earlier work
[3] = Singlet oxygen quantum yield by phosphorescence at 1270 nm, thiouracil series; assay type: physicochemical
Description: Solutions of 4tUra, 2,4dtUra, and the singlet oxygen standard (phenalenone; ΦΔ=0.98) were prepared in acetonitrile, each with an absorbance of 0.3 at 355 nm in a 1×1 cm quartz cuvette. The solutions were purged with oxygen for 30 min, followed by the determination of quantum yields from back-toback measurements of the singlet oxygen phosphorescence intensity at 1270 nm. The O2-saturated solutions were excited at 355 nm (Spectra Physics GCR-150-30: 7 ns pulse width) and the phosphorescence at 1270 nm was detected with a NIR sensitive photomultiplier tube (H10330A-45, Hamamatsu).
The singlet oxygen (^1O2) quantum yields of 4tUra and 2,4dtUra were measured by monitoring the characteristic phosphorescence of ^1O2 at 1270 nm with nanosecond time resolution.

[4] = Estimated photosensitization depth into tissue from molar absorptivity cutoff and penetration depth of light
Source text: FIG. 13 illustrates a plot showing molar absorptivity spectra of 4tUra and 2,4dtUra overlaid with the function of the wavelength-dependent penetration depth of light into unpigmented tissue. The ε cutoff is defined by the molar absorptivity of 4tUra at 365 nm; the excitation wavelength typically used in its photosensitization applications.
Importantly, many of the current applications employing 4tUra and other UVA photosensitizers (e.g. psoralen derivatives) use radiation at 365 nm as the excitation source. The use of longer UVA wavelengths reduces direct excitation of other biomolecules, thereby increasing photosensitization efficiency and minimizing unwanted side reactions. However, the requirement of using relatively high concentrations of the sensitizer and/or long irradiation times are two major drawbacks in the current use of 4tUra in photocrosslinking studies as well as in PUVA (psoralen+UVA) photochemotherapies. […] More importantly, 2,4dtUra enables the use of lower-energy excitation wavelengths, as long as 395 nm (see FIG. 13), considering a molar absorptivity cutoff criterion equal to that currently used for 4tUra (see ESI† for a more thorough justification of this cutoff criterion). In other words, the use of 2,4dtUra enables excitation at 395 nm while maintaining the same absorption efficiency and photoreactivity as that of 4tUra at 365 nm. […]

[5] = Femtosecond to microsecond transient absorption spectroscopy of the thiouracil series (intersystem crossing, triplet yield, triplet decay, triplet-triplet extinction)
Source text: Briefly, 800 nm, 100 fs fundamental pulses were generated with a Ti-Sapphire regenerative amplifier laser system (Libra-HE, Coherent, Inc.: 4.0 W, 1 kHz). The fundamental beam was used to produce pump wavelengths of 320, 335, and 350 nm via an optical parametric amplifier (TOPAS, Quantronix/Light Conversion). Unwanted wavelengths were removed from the pump beam using a reflective wavelength filter and a Glan-Taylor polarizer. A fraction of the remaining fundamental beam was focused into a continuously moving CaF2 plate (2 mm thick) to generate broadband white light probe pulses (320-700 nm). The intensity of the excitation beam was attenuated to 1 mJ per pulse at the sample position. The polarization of the pump beam was randomized before being focused into the sample to overlap with the white light continuum probe at a 3:1 beam diameter ratio. Pump-probe experiments were collected using a Helios spectrometer (Ultrafast Systems, LLC) and a home-made data acquisition software (LabView, National Instruments, Inc.).
Solutions of the 2tUra, 4tUra, and 2,4dtUra derivatives were prepared in aqueous phosphate-buffered saline at pH 7.4. […] Solutions were investigated in 2 mm optical path length quartz cells and the irradiated volume was continuously refreshed by stirring with a Teflon-coated magnetic stir bar. Contributions to the transient data from any putative photoproduct formation were prevented by replacing the solution with fresh stock solution every 5 scans, or before 6% sample degradation (as monitored by a decrease in the steady-state absorbance of the lowest-energy absorption band). The UVA excitation wavelength used was varied depending on the absorption spectrum of the specific thiouracil derivative investigated. For 2tUra, an excitation wavelength of 320 nm was used, whereas 2,4dtUra was excited at 335 and 350 nm, and 4tUra was excited at all three of these UVA wavelengths.
Decay of the triplet state of 4tUra and 2,4dtUra to the ground state was monitored using the same excitation and detection setups but probing with an electronically triggered broadband white light source (Eos, Ultrafast Systems, LLC) that has been conveniently integrated into the Helios spectrometer. This probe source has a spectral window from B375 to 800 nm, a time resolution of about 400 ps, and a temporal window of up to 120 ms. […] Data were collected with the solutions under a constant nitrogen flow, and exciting at 350 nm with 3 mJ per pulse for 10 min, corresponding to less than 5% degradation.
For each data set, between 50 and 100 traces were selected across the entire range of probe wavelengths and globally analyzed in Igor Pro 6.32A (WaveMetrics, Inc.). […] 83 The uncertainties reported for the triplet population lifetimes are twice the standard deviation from the average fitting of at least three independent datasets (i.e., recorded on three different days). Triplet-triplet absorption spectra were extracted from the global fitting analysis.

[6] = system: adenosine 5′-monophosphate (5′-AMP); test: Photoreactivity with adenosine 5′-monophosphate upon 365 nm irradiation in N2-saturated buffer
Description: Aqueous phosphate-buffered saline solutions, pH 7.4, containing either 4tUra or 2,4dtUra were prepared with and without 5′-AMP and loaded into 1×1 cm septum-top quartz cuvettes. The concentrations of the thiouracil derivatives and 5′-AMP were […], respectively. These concentrations were chosen in order to favor the bimolecular photoreaction between the thiouracil derivative and 50-AMP, while simultaneously maintaining the absorbance of the solutions within the linear dynamic range limit of the UV-visible spectrophotometer used. All solutions were purged with ultrapure nitrogen for 30 min and kept under constant nitrogen flow throughout the irradiation period. An optical parametric amplifier (TOPAS, Quantronix/Light Conversion) pumped by our Libra laser system (described above) was used for monochromatic (±1 nm) irradiation of the samples. […] Absorbance changes in the thiouracil solutions, with and without 5′-AMP, were monitored periodically using UV-visible spectroscopy (Cary 100 Bio) during irradiation at 365 nm for up to 90 min and while stored in the dark for up to three and a half days.
In order to scrutinize the light-induced reactivity of these sensitizers toward biomolecules, aqueous phosphate-buffered saline solutions of either 4tUra or 2,4dtUra were prepared in the presence of the RNA monomer adenosine 5′-monophosphate (5′-AMP) at a 1:5 molar ratio. […] The experimental conditions were chosen in order to facilitate the extraction of relative photoreaction rates from the changes in the steady-state absorption spectra with irradiation time. […]

## Sc1ccnc(S)n1 [2,4dtUra, 2,4-dithiouracil]
[1]
  absorption efficiency at near-visible wavelengths relative to 4tUra: about 27 fold
[2]
  pKa: 7.4
[3]; O2-saturated acetonitrile, 355 nm excitation, phenalenone standard
  ΦΔ singlet oxygen quantum yield: 0.49±0.02
[3]; excited to lowest-energy absorption band
  1O2 yield relative to uracil: 3.3 fold
[3]; following UVA excitation
  1O2 yield: ca. 50%
[4]
  longest excitation wavelength at molar absorptivity cutoff equal to that of 4tUra at 365 nm: ≤ 395 nm
[5]
  increase in rate of intersystem crossing going from 2tUra: 1.6 fold
[5]; aqueous phosphate-buffered saline solution, pH 7.4
  τISC intersystem crossing lifetime: 220±40 fs
[5]; aqueous phosphate-buffered saline solution, pH 7.4, 24 mM solutions, nitrogen-purged, 350 nm excitation
  κT triplet-state decay rate: 4.3 ± 0.9 10^6 s^−1
[5]; aqueous phosphate-buffered saline, pH 5.4
  intersystem crossing lifetime: 210±50 fs
[5]; at 600 nm, singlet depletion method
  triplet-triplet extinction coefficient: 2500 ± 600 M⁻¹ cm⁻¹
[6]; 365 nm, same concentrations of reactants
  photoreaction rate with 5′-AMP relative to 4tUra: approximately three times faster; also recorded: threefold greater; also recorded: threefold higher
[6]; with 5′-AMP, 1:5 molar ratio (24 and 120 mM), 365 nm irradiation, N2-saturated aqueous buffer pH 7.4
  photoreaction rate: (1.2±0.2)×10^−9 M s^−1

Reference: US10864273B2, “Thiobase compounds for photodynamic therapy” (CASE WESTERN RESERVE UNIVERSITY, priority 2015, dated 2020)
